# Values of other authors in US10201537B2 (INFLAMMATORY RESPONSE RESEARCH, INC., priority 2013, dated 2019).
# Read-outs that look alike come from different tables or passages of the source.
# B1: filgrastim (protein, chains of the INN, looked up)
# chain: MTPLGPASSLPQSFLLKCLEQVRKIQGDGAALQEKLCATYKLCHPEELVLLGHSLGIPWAPLSSCPSQALQLAGCLSQLHSGLFLYQGLLQALEGISPELGPTLDTLQLDVADFATTIWQQMEELGMAPALQPTQGAMPAFASAFQRRAGGVLVASHLQSFLEVSYRVLRHLAQP
# modifications: N-terminal methionine, non-glycosylated
# notes: protein stimulating granulocyte and macrophage proliferation and differentiation
# How the values were obtained:
# influenza = conditions: human, in vivo
# [1] = tested on: histamine induced wheal and flare; conditions: levocetirizine 5 mg per day vs fexofenadine 180 mg per day
# [2] = in vivo
# [3] = warfarin, theophylline, digoxin, terfenadine, oral contraceptives, prednisone
# [4] = for time to steady state level: montelukast, oral
# [5] = tested on: granulocyte and macrophage proliferation; conditions: in vivo
molecule,measurement,setting,value
CCOC(=O)C1=C[C@@H](OC(CC)CC)[C@H](NC(C)=O)[C@@H](N)C1 [oseltamivir],influenza related lower respiratory tract complications,influenza,did not appear to reduce influenza related lower respiratory tract complications
O=C(O)COCCN1CCN([C@H](c2ccccc2)c2ccc(Cl)cc2)CC1 [Levocetirizine],effectiveness versus fexofenadine,[1],more effective than fexofenadine
same,"inflammatory mediators IL-4, IL-6, and IL-8","IL-4, IL-6, and IL-8",decrease inflammatory mediators
same,time to steady state level,[2],40 h
same,eosinophil migration,eosinophil migration,decrease eosinophil migration
same,principal side effect at higher doses,humans; higher doses,Sedation
same,doses safely administered in humans,humans; in vivo,up to 30 mg/day
CC(C)(O)c1ccccc1CC[C@@H](SCC1(CC(=O)O)CC1)c1cccc(/C=C/c2ccc3ccc(Cl)cc3n2)c1 [Montelukast],doses without clinically important adverse experiences,"adult patients; adult patients, 22 weeks",up to 200 mg/day
same,doses without clinically important adverse experiences,"adult patients; short-term studies, approximately one week",up to 900 mg/day
same,drug interactions,[3],no drug interactions
same,plasma concentration area under the curve profile,[4]; IV montelukast 7 mg vs 10 mg oral tablet,comparable to the approved 10 mg oral montelukast tablet
same,absorption,[4]; in vivo,rapidly absorbed
same,linear pharmacokinetics to dose,[4]; in vivo,≤ 50 mg
same,time to peak plasma concentration,[4]; in vivo,3 to 4 h
same,time to steady state level,[4],less than two days
same,time to steady state level,[4]; listed as montelukast,within two days
same,effect of a standard meal on oral bioavailability and Cmax,[4]; standard meal,not affected by a standard meal
B1,serious reactions,[5],"splenic rupture, ARDS, thrombocytopenia, cutaneous vasculitis, and hemorrhage"
